Test results from patent publication US20110003778A1, “MINERALCORTICOID RECEPTOR ANTAGONISTS FOR THE TREATMENT OF ENDOMETRIOSIS” (Bayer Schering Pharma Aktiengesellschaft, priority 2007, published 2011).
Entries after “also recorded” stand apart in the source; their conditions may differ.

Key:
[1] = system: endometriotic lesions; test: Endometriosis model in rhesus macaques: uterus weight and weights/size of endometrial lesions after 60 days of treatment; type: in vivo
Procedure: (§1) The activity of the mineralcorticoid receptor antagonist spironolactone was tested in an endometriosis model in non-human primates. Non-human primates are the only species apart from man where endometriosis occurs spontaneously under natural conditions. They are therefore the most relevant model for examining this disorder. […] In this procedure, the animals are given a depot for estradiol substitution which keeps the serum level at 80 to 100 pg/ml. In this manner, it is ensured that the endometriotic lesions are exposed to physiological concentrations of estradiol. By virtue of the depot, interindividual variations of the hormone concentrations and their effect on the results can be excluded. After the treatment, the size of the endometrium lesions was determined, and the proliferation of these lesions was detected by a histological analysis. […] In an autologous transplantation, a plurality of lesions from endometrium tissue were implanted subcutaneously and intraperitoneally/abdominally into rhesus macaques.

[2] = system: endometriotic lesions; test: Rate of proliferation of endometrial lesions in the rhesus macaque endometriosis model (Ki67 staining, BrDU incorporation); type: in vivo, rhesus macaques; conditions: abdominal lesions, secretory cells; 60 days spironolactone vs control; FIG. 3
Procedure: as §1, with “Accordingly, the mineralcorticoid receptor antagonist spironolactone has” for “In an autologous transplantation,”, “positive effect on endometriosis genesis.” for “plurality of lesions from endometrium tissue were implanted subcutaneously and intraperitoneally/abdominally into rhesus macaques.”
Examination of the rate of proliferation of endometrial lesions in an endometriosis model in rhesus macaques after treatment with spironolactone.
Both detection of cell division in the endometriotic lesions by Ki67 (top row) and by incorporation of BrDU (bottom row) show a reduced value in the animals treated with spironolactone (control, left, compared to spironolactone, right).

[3] = after 60 days of treatment, macaque model, n = 4

Row | Structure (SMILES) | size of the endometriotic lesions compared to control animals ([1]; 60 days estradiol + spironolactone 30 mg/kg/day vs estradiol control) | effect on the uterus as such ([1]; 60 days estradiol + spironolactone vs estradiol control) | weight of subcutaneous and intraperitoneal/abdominal lesions after treatment (in words) ([1]; 60 days estradiol + spironolactone vs estradiol control, both types of lesions) | proliferation in the lesions by bromodeoxyuridine (BrDU) incorporation [2] | proliferation in the lesions by staining of the mitotic antigen Ki67 [2] | Intraabdominal lesion wt [1, 3] | Subcutaneous lesion wt [1, 3] | Uterus wt [1, 3]
1 | CC(=O)S[C@@H]1CC2=CC(=O)CC[C@]2(C)[C@H]2CC[C@@]3(C)[C@@H](CC[C@@]34CCC(=O)O4)[C@H]12 [spironolactone] | significant reduction of the endometriotic lesions | no significant effect | reduction in weight | reduction of proliferation; also recorded: strongly reduced; also recorded: reduced value | reduction of proliferation; also recorded: strongly reduced; also recorded: reduced value |  |  | 
2 | C[C@]12CC[C@@H]3c4ccc(O)cc4CC[C@H]3[C@@H]1CC[C@@H]2O [E2, estradiol] |  |  |  |  |  | 0.068 + 0.11 g | 0.039 ± 0.008 g | 3.75 ± 0.496 g
